Test results reported in ChEMBL document CHEMBL1147934, “Discovery of a novel small molecule binding site of human survivin” (Bioorg Med Chem Lett, 2007).
≈ marks a conversion by molar mass, not a printed value.

Tests used:
[1] = Solubility by nephelometry; format: physicochemical
[2] = Solubility at pH 7.4 by shake flask method; format: physicochemical; details: buffer
[3] = target: Baculoviral IAP repeat-containing protein 5 (Homo sapiens, UniProt O15392); test: Binding affinity to human survivin expressed in Escherichia coli BL21 cells after 30 mins
Baculoviral IAP repeat-containing protein 5, sequence (O15392 whole entry): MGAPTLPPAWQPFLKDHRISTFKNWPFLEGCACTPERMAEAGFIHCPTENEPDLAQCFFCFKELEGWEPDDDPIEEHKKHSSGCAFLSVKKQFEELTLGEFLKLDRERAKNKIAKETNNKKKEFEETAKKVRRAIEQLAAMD

solubility kinetic [1] [µM]	solubility thermodynamic [2] [µM]	Structure (SMILES)	Kd [3] [µM]
> 32	–	CN(Cc1cc(Cl)cc(-c2cc(-c3cc(C(F)(F)F)ccc3Cl)c(C#N)c(=O)[nH]2)c1O)C(=O)C1CCN(C(=O)C2CCCCC2)CC1	–
> 32	300 (≈ 186 µg/mL)	CC(=O)N1CCC(C(=O)N(C)Cc2cc(Cl)cc(-c3cc(-c4cc(C(F)(F)F)ccc4Cl)c(C#N)c(=O)[nH]3)c2O)CC1	–
> 32	–	CCCC(=O)N1CCC(C(=O)N(C)Cc2cc(Cl)cc(-c3cc(-c4cc(C(F)(F)F)ccc4Cl)c(C#N)c(=O)[nH]3)c2O)CC1	–
–	–	N#Cc1c(-c2ccccc2)cc(-c2cc(Br)ccc2O)[nH]c1=O	5
–	–	N#Cc1c(-c2cc(-c3ccccc3)ccc2Cl)cc(-c2cc(Br)ccc2O)[nH]c1=O	> 4.3
–	–	Cc1ccnc(NC(=O)C2CCNCC2)c1	130
–	–	CC1(C)NC(=O)N(C/C(COc2ccc(-c3ccc(OC(F)(F)F)cc3)cc2)=N/O)C1=O	< 10
> 32	138 (≈ 89.9 µg/mL)	COCC(=O)N1CCC(C(=O)N(C)Cc2cc(Cl)cc(-c3cc(-c4cc(C(F)(F)F)ccc4Cl)c(C#N)c(=O)[nH]3)c2O)CC1	–
–	–	CCc1oc2ccccc2c1C(=O)c1cc(I)c(O)c(I)c1 [BENZIODARONE]	8
–	–	N#Cc1c(-c2ccccc2)cc(-c2ccccc2O)[nH]c1=O	75
–	–	Clc1cccc(Nc2ccc3ccccc3c2)c1	< 10
